Data: ChEMBL document CHEMBL1152098, “A new rearranged cholestane glycoside from ornithogalum saundersiae bulbs exhibiting potent cytostatic activities on leukemia HL-60 and molt-4 cells” (Bioorg Med Chem Lett, 1996)

Key:
[1] = system: HL-60; assay: Compound was tested for its anticancer activity against HL-60 cells.; assay type: functional, cell-based; details: Homo sapiens
[2] = system: MOLT-4; assay: Compound was tested for its anticancer activity against human T-lymphocytic leukemia MOLT-4 cells.; assay type: functional, cell-based

Row | IC50 [1] | IC50 [2] | SMILES
1 | 9.2 nM | 3.2 nM | COc1ccc(C(=O)O[C@@H]2[C@H](O)[C@@H](O)[C@H](O[C@@H]3[C@H](O[C@H]4CC[C@@]5(C)C(=CC[C@H]6[C@@H]7C[C@@H]8O[C@@H](O)[C@H](C=C(C)C)[C@]9(C)O[C@@H](OC)C7(CC[C@@H]65)[C@H]89)C4)O[C@@H](CO)[C@@H](O)[C@@H]3O)O[C@H]2C)cc1 (stereo not given in full)
2 |  | 48 nM | CN(Cc1cnc2nc(N)nc(N)c2n1)c1ccc(C(=O)N[C@@H](CCC(=O)O)C(=O)O)cc1 [METHOTREXATE]
3 |  | 38 nM | COc1cc([C@@H]2c3cc4c(cc3[C@@H](O[C@@H]3O[C@@H]5CO[C@@H](C)O[C@H]5[C@H](O)[C@H]3O)[C@H]3COC(=O)[C@H]23)OCO4)cc(OC)c1O [ETOPOSIDE]
4 |  | 35 nM | COc1cccc2c1C(=O)c1c(O)c3c(c(O)c1C2=O)C[C@@](O)(C(=O)CO)C[C@@H]3O[C@H]1C[C@H](N)[C@H](O)[C@H](C)O1 [DOXORUBICIN]
